In the supplement of paper PMC10307832:

How the values were obtained:
Test in all cases: relative viability (nuclei count vs DMSO), 5 days (fraction); higher = more cells survive
[1] = system: NCI-H1355
Summary of the method: (§1)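 Dosing by pin tool came one day after lung cancer cell lines were seeded in 1536-well plates, using either one drug or a fixed anchor-drug dose plus five library-drug doses (not always all listed) in √10 steps. After 5 days, nuclei were counted on 4× images. Relative viability is treated-well nuclei count divided by vehicle-well nuclei count, and values are medians of duplicate plates.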

[2] = system: HCC-78
Summary of the method: as §1

[3] = system: NCI-H2342
Summary of the method: as §1

[4] = system: LCLC-97TM1
Summary of the method: as §1

[5] = system: NCI-H1975
Summary of the method: as §1

[6] = system: SK-MES-1
Summary of the method: as §1

[7] = system: PC-3 [JPC-3]
Summary of the method: as §1

[8] = system: NCI-H596
Summary of the method: as §1

[9] = system: LC-2-ad
Summary of the method: as §1

[10] = system: NCI-H358
Summary of the method: as §1

[11] = system: NCI-H650
Summary of the method: as §1

[12] = system: NCI-H838
Summary of the method: as §1

[13] = system: LK-2
Summary of the method: as §1

[14] = system: BEN
Summary of the method: as §1

[15] = system: LU99A
Summary of the method: as §1

[16] = system: LXF-289
Summary of the method: as §1

[17] = system: NCI-H1651
Summary of the method: as §1

[18] = system: NCI-H1944
Summary of the method: as §1

[19] = system: NCI-H2087
Summary of the method: as §1

[20] = system: ChaGo-K-1
Summary of the method: as §1

[21] = system: NCI-H661
Summary of the method: as §1

[22] = system: NCI-H1666
Summary of the method: as §1

Question: With `CCN(CC)CCCCNc1ncc2cc(-c3cc(OC)cc(OC)c3)c(NC(=O)NC(C)(C)C)nc2n1` + CC(=O)Nc1cccc(-n2c(=O)n(C3CC3)c(=O)c3c(Nc4ccc(I)cc4F)n(C)c(=O)c(C)c32)c1 [Trametinib] (partner 0.02 µM) as the compound, how does the relative viability ([1]; first compound 0.01 µM) read?
Answer: 0.462

Question: And the relative viability ([1]; first compound 0.03162 µM)?
Answer: 0.436

Question: And the relative viability ([1]; first compound 0.1 µM)?
Answer: 0.479

Question: What about the relative viability ([1]; first compound 0.3162 µM) of the same compound?
Answer: 0.502

Question: And the relative viability ([1]; first compound 1 µM)?
Answer: 0.382

Question: What about the relative viability ([2]; first compound 0.01 µM) of the same compound?
Answer: 0.874

Question: What about the relative viability ([2]; first compound 0.03162 µM) of the same compound?
Answer: 0.685

Question: What about the relative viability ([2]; first compound 0.1 µM) of the same compound?
Answer: 0.842

Question: And the relative viability ([2]; first compound 0.3162 µM)?
Answer: 0.819

Question: And the relative viability ([2]; first compound 1 µM)?
Answer: 0.76

Question: And the relative viability ([3]; first compound 0.01 µM)?
Answer: 0.787

Question: And the relative viability ([3]; first compound 0.03162 µM)?
Answer: 0.783

Question: And the relative viability ([3]; first compound 0.1 µM)?
Answer: 0.815

Question: And the relative viability ([3]; first compound 0.3162 µM)?
Answer: 0.858

Question: And the relative viability ([3]; first compound 1 µM)?
Answer: 0.928

Question: And the relative viability ([4]; first compound 0.01 µM)?
Answer: 0.161

Question: And the relative viability ([4]; first compound 0.03162 µM)?
Answer: 0.189

Question: What about the relative viability ([4]; first compound 0.1 µM) of the same compound?
Answer: 0.216

Question: And the relative viability ([4]; first compound 0.3162 µM)?
Answer: 0.168

Question: What about the relative viability ([4]; first compound 1 µM) of the same compound?
Answer: 0.185

Question: What about the relative viability ([5]; first compound 0.01 µM) of the same compound?
Answer: 0.328

Question: What about the relative viability ([5]; first compound 0.03162 µM) of the same compound?
Answer: 0.314

Question: What about the relative viability ([5]; first compound 0.1 µM) of the same compound?
Answer: 0.345

Question: What about the relative viability ([5]; first compound 0.3162 µM) of the same compound?
Answer: 0.405

Question: And the relative viability ([5]; first compound 1 µM)?
Answer: 0.348

Question: And the relative viability ([6]; first compound 0.01 µM)?
Answer: 0.601

Question: And the relative viability ([6]; first compound 0.03162 µM)?
Answer: 0.562

Question: And the relative viability ([6]; first compound 0.1 µM)?
Answer: 0.525

Question: And the relative viability ([6]; first compound 0.3162 µM)?
Answer: 0.584

Question: What about the relative viability ([6]; first compound 1 µM) of the same compound?
Answer: 0.512

Question: What about the relative viability ([7]; first compound 0.03162 µM) of the same compound?
Answer: 0.698

Question: What about the relative viability ([7]; first compound 0.1 µM) of the same compound?
Answer: 0.766

Question: And the relative viability ([7]; first compound 0.3162 µM)?
Answer: 0.72

Question: And the relative viability ([7]; first compound 1 µM)?
Answer: 0.683

Question: And the relative viability ([8]; first compound 0.01 µM)?
Answer: 0.865

Question: And the relative viability ([8]; first compound 0.03162 µM)?
Answer: 0.879

Question: And the relative viability ([8]; first compound 0.1 µM)?
Answer: 0.677

Question: And the relative viability ([8]; first compound 0.3162 µM)?
Answer: 0.778

Question: What about the relative viability ([8]; first compound 1 µM) of the same compound?
Answer: 0.646

Question: What about the relative viability ([9]; first compound 0.01 µM) of the same compound?
Answer: 0.874

Question: What about the relative viability ([9]; first compound 0.03162 µM) of the same compound?
Answer: 1.02

Question: What about the relative viability ([9]; first compound 0.1 µM) of the same compound?
Answer: 0.992

Question: What about the relative viability ([9]; first compound 0.3162 µM) of the same compound?
Answer: 0.967

Question: And the relative viability ([9]; first compound 1 µM)?
Answer: 0.841

Question: And the relative viability ([10]; first compound 0.01 µM)?
Answer: 0.127

Question: And the relative viability ([10]; first compound 0.03162 µM)?
Answer: 0.15

Question: What about the relative viability ([10]; first compound 0.1 µM) of the same compound?
Answer: 0.143

Question: What about the relative viability ([10]; first compound 0.3162 µM) of the same compound?
Answer: 0.139

Question: What about the relative viability ([10]; first compound 1 µM) of the same compound?
Answer: 0.125

Question: What about the relative viability ([11]; first compound 0.01 µM) of the same compound?
Answer: 1.03

Question: What about the relative viability ([11]; first compound 0.03162 µM) of the same compound?
Answer: 1.01

Question: What about the relative viability ([11]; first compound 0.1 µM) of the same compound?
Answer: 0.962

Question: What about the relative viability ([11]; first compound 0.3162 µM) of the same compound?
Answer: 1.07

Question: What about the relative viability ([11]; first compound 1 µM) of the same compound?
Answer: 0.925

Question: What about the relative viability ([12]; first compound 0.01 µM) of the same compound?
Answer: 0.469

Question: What about the relative viability ([12]; first compound 0.03162 µM) of the same compound?
Answer: 0.515

Question: And the relative viability ([12]; first compound 0.1 µM)?
Answer: 0.514

Question: What about the relative viability ([12]; first compound 0.3162 µM) of the same compound?
Answer: 0.435

Question: And the relative viability ([12]; first compound 1 µM)?
Answer: 0.443

Question: What about the relative viability ([13]; first compound 0.01 µM) of the same compound?
Answer: 0.856

Question: What about the relative viability ([13]; first compound 0.03162 µM) of the same compound?
Answer: 0.649

Question: And the relative viability ([13]; first compound 0.1 µM)?
Answer: 0.756

Question: What about the relative viability ([13]; first compound 0.3162 µM) of the same compound?
Answer: 0.597

Question: And the relative viability ([13]; first compound 1 µM)?
Answer: 0.299

Question: And the relative viability ([14]; first compound 0.01 µM)?
Answer: 1.15

Question: And the relative viability ([14]; first compound 0.03162 µM)?
Answer: 0.797

Question: And the relative viability ([14]; first compound 0.1 µM)?
Answer: 0.978

Question: And the relative viability ([14]; first compound 0.3162 µM)?
Answer: 1.09

Question: And the relative viability ([14]; first compound 1 µM)?
Answer: 0.888

Question: What about the relative viability ([15]; first compound 0.01 µM) of the same compound?
Answer: 0.593

Question: And the relative viability ([15]; first compound 0.03162 µM)?
Answer: 0.537

Question: And the relative viability ([15]; first compound 0.1 µM)?
Answer: 0.527

Question: What about the relative viability ([15]; first compound 0.3162 µM) of the same compound?
Answer: 0.6

Question: And the relative viability ([15]; first compound 1 µM)?
Answer: 0.505

Question: What about the relative viability ([16]; first compound 0.01 µM) of the same compound?
Answer: 0.704

Question: And the relative viability ([16]; first compound 0.03162 µM)?
Answer: 0.703

Question: And the relative viability ([16]; first compound 0.1 µM)?
Answer: 0.637

Question: What about the relative viability ([16]; first compound 0.3162 µM) of the same compound?
Answer: 0.759

Question: And the relative viability ([16]; first compound 1 µM)?
Answer: 0.644

Question: What about the relative viability ([17]; first compound 0.01 µM) of the same compound?
Answer: 0.863

Question: And the relative viability ([17]; first compound 0.03162 µM)?
Answer: 0.802

Question: What about the relative viability ([17]; first compound 0.1 µM) of the same compound?
Answer: 0.842

Question: What about the relative viability ([17]; first compound 0.3162 µM) of the same compound?
Answer: 0.836

Question: What about the relative viability ([17]; first compound 1 µM) of the same compound?
Answer: 0.806

Question: And the relative viability ([18]; first compound 0.01 µM)?
Answer: 0.428

Question: What about the relative viability ([18]; first compound 0.03162 µM) of the same compound?
Answer: 0.398

Question: What about the relative viability ([18]; first compound 0.1 µM) of the same compound?
Answer: 0.403

Question: And the relative viability ([18]; first compound 0.3162 µM)?
Answer: 0.416

Question: And the relative viability ([18]; first compound 1 µM)?
Answer: 0.401

Question: What about the relative viability ([19]; first compound 0.01 µM) of the same compound?
Answer: 0.202

Question: And the relative viability ([19]; first compound 0.03162 µM)?
Answer: 0.171

Question: And the relative viability ([19]; first compound 0.1 µM)?
Answer: 0.217

Question: What about the relative viability ([19]; first compound 0.3162 µM) of the same compound?
Answer: 0.189

Question: And the relative viability ([19]; first compound 1 µM)?
Answer: 0.209

Question: And the relative viability ([20]; first compound 0.01 µM)?
Answer: 0.906

Question: And the relative viability ([20]; first compound 0.03162 µM)?
Answer: 0.902

Question: What about the relative viability ([20]; first compound 0.1 µM) of the same compound?
Answer: 0.951

Question: What about the relative viability ([20]; first compound 0.3162 µM) of the same compound?
Answer: 0.962

Question: And the relative viability ([20]; first compound 1 µM)?
Answer: 0.885

Question: And the relative viability ([21]; first compound 0.01 µM)?
Answer: 0.592

Question: What about the relative viability ([21]; first compound 0.03162 µM) of the same compound?
Answer: 0.589

Question: What about the relative viability ([21]; first compound 0.1 µM) of the same compound?
Answer: 0.569

Question: And the relative viability ([21]; first compound 0.3162 µM)?
Answer: 0.563

Question: What about the relative viability ([21]; first compound 1 µM) of the same compound?
Answer: 0.473

Question: And the relative viability ([22]; first compound 0.01 µM)?
Answer: 0.788

Question: What about the relative viability ([22]; first compound 0.03162 µM) of the same compound?
Answer: 0.834

Question: And the relative viability ([22]; first compound 0.1 µM)?
Answer: 0.93

Question: And the relative viability ([22]; first compound 0.3162 µM)?
Answer: 0.973

Question: What about the relative viability ([22]; first compound 1 µM) of the same compound?
Answer: 0.875
